Measurements published in paper PMC12415213, “A genome-scale drug discovery pipeline uncovers therapeutic targets and a unique p97 allosteric binding site in Schistosoma mansoni” (Proceedings of the National Academy of Sciences of the …, 2025).
“Also recorded” adds a separate entry of the source. Like-named read-outs stand apart in the source and are kept apart here.

Legend:
[1] = system: S. mansoni vcp/p97 (Smp_018240); assay: High-throughput screen of S. mansoni p97 (Kinase-Glo, single concentration); assay type: biochemical, Schistosoma mansoni; conditions: for Screen Inhibition (%): 10 μM compound, normalized to CB-5083 control; for inhibition of S. mansoni p97 function in the screen: high-throughput screen, 10 μM
Procedure: (§1) Evaluation of p97’s ATPase activity and compound potency
(§2) For manual ATP consumption assays, 1 µM p97 was incubated with 1% DMSO or inhibitor (1% DMSO final) in assay buffer [50 mM Tris (pH 7.5), 20 mM MgCl2, 1 mM EDTA, 0.5 mM tris(2-carboxyethyl)phosphine (TCEP)] for 5 minutes prior to the addition of 20 µM ATP in a 384-well plate for a total reaction volume of 10 µL, and a final concentration of 500nM enzyme and 10 µM ATP. The reaction was allowed to proceed for 50 minutes at room temperature before adding equivalent volume of Kinase-Glo Plus reagent (Promega), and a further incubation of 10 minutes in the dark. […]
High-throughput screening (HTS) assay
Kinase-Glo (Promega, part K1214) was purchased from Promega. Microtiter plates (384 wells) were purchased from Perkin Elmer. All chemicals included in the UTSW library were sourced from commercial sources […]
TimTec (500)] or UT Southwestern chemists (https://www.utsouthwestern.edu/research/core-facilities/high- […]
throughput-screening/libraries/). […]
concentration of 10 µM (0.2% DMSO). Luminescence was read by EnVision multimode plate reader (Perkin-Elmer). Assay conditions were consistent between manual and high-throughput assays [10 µM ATP, 50 mM Tris (pH 7.5), 20 mM MgCl2, 1 mM EDTA, 0.5 mM tris(2-carboxyethyl)phosphine (TCEP)]. The plates were then incubated for 50 min at room temperature before addition of Kinase-Glo reagent and further incubation in the dark for 10 minutes before reading luminescence. […]
were obtained to determine activity of compounds on the enzyme. […]

[2] = system: adult S. mansoni; assay: Single-concentration (10 μM) treatment of adult worms, attachment and morphology; assay type: cell-based, Schistosoma mansoni; conditions: in vitro culture
Procedure: (§3) DMSO). All selected compounds were obtained from commercial vendors (Medchemexpress, Selleck Chemicals, Sigma-Aldrich, ApexBio, Tocris, Santa Cruz Biotechnology, and Cayman Chemical Company) (Dataset S4) with […]
(§4) the activity of the desired compounds. Roughly 5 adult worm pairs were placed in 3mL Basch medium in a 12-well culture vessel, and incubated at 37° C, 5% CO2 for the length of the experiment. Compound was administered at D0, D1, and D2, media and drug refreshed every 24 hr. Worms were then allowed to remain in culture until D5, where a final assessment of worm attachment to tissue culture substate was made by light microscopy.
Observations on movement and morphology were also recorded. A negative control (0.1% DMSO) and positive control (PZQ; 10 µM in 0.1% DMSO) were included in each experiment, and each experiment was repeated in triplicate for validation. […]

[3] = target: S. mansoni p97 (Smp_018240) (Schistosoma mansoni, UniProt G4M0P7); assay type: biochemical
Procedure: as §1
as §2, with “dark. Luminescence was read using a BioTek Synergy 2 plate reader” for “dark.”
1 μM, 500 nM, 100 nM, 50 nM, 10 nM, 5 nM, 1 nM, and 0 nM) in triplicate, maintaining a concentration of 1% […]
were calculated using GraphPad Prism. […]

[4] = target: T1, H. sapiens p97 (P55072) (Homo sapiens, UniProt P55072); assay: Kinase-Glo ATP consumption assay, recombinant H. sapiens p97; assay type: biochemical; conditions: 100 μM to 1 nM
T1 construct: purified recombinant full-length (1-806aa) H; 6xHis (N); made in house; host or cells: E. coli BL21 (DE3)

[5] = system: K48 polyubiquitinated proteins in adult S. mansoni; assay: Western blot of K48 polyubiquitinated proteins in lysate of drug-treated worms; assay type: cell-based, Schistosoma mansoni; conditions: adult worm lysate after 48 h of treatment
Procedure: as §3
the activity of the desired compounds. Roughly 5 adult worm pairs were placed in 3mL Basch medium in a 12-well culture vessel, and incubated at 37° C, 5% CO2 for the length of the experiment. […]
(§5) For drug treatment studies, 10 male adult worms (single or paired with females) were supplemented with either 0.1% DMSO or inhibitor (0.1% DMSO final). For all experiments assessing on-target effects of potential parasite […]
(§6) After 48 hr, male parasites were separated […]
(§7) further processing. Male worm samples were homogenized with a pestle in 50 µL lysis buffer containing 2X […]
(Roche, cOmplete Mini, EDTA-free Tablets) and 10 mM DTT. The lysates were then sonicated on high for 5 min (30 sec on, 30 sec off) using a Bioruptor UCD-200. Lysates were centrifuged for 5 min at 10,000 g to remove […]
debris. Total protein was measured using the Detergent Compatible Bradford Assay (Pierce). 50 µg of protein samples denatured in SDS Sample buffer (95°C for 5 min) were separated on a Bio-Rad 4-20% TGX Stain-Free gel along with Precision Plus Protein Dual Color Standards (Bio-Rad) as a marker. Proteins were then transferred to a nitrocellulose membrane (Bio-Rad). The membrane was blocked in a 1:5 solution of Li-Cor Odyssey Blocking buffer in PBST for 1 hr before being immunoblotted overnight at 4°C with 1:500 K48-linkage Specific […]
(1:10,000) (Developmental Studies Hybridoma Bank, JLA20) diluted in a 1:5 solution of Li-Cor Odyssey Blocking buffer in PBST. The membrane was washed 3x in TBST and then incubated in 1:5 Li-Cor Odyssey […]
in TBST 3x before being imaged on a LiCor Odyssey Infrared Imager. […]

[6] = system: adult S. mansoni; assay: Dose-response of compounds on adult worms (attachment to culture substrate, EC50); assay type: cell-based, Schistosoma mansoni; conditions: read-out: EC50 of commercial inhibitors of human orthologs on adult parasites
Procedure: as §3, §4
Observations on movement and morphology were also recorded. A negative control (0.1% DMSO) and positive control (PZQ; 10 µM in 0.1% DMSO) were included in each experiment, and each experiment was repeated in triplicate for validation. For compounds that caused complete detachment in replicate experiments, the treatment was expanded to three concentrations (10 µM, 5 µM, and 1 µM) following the same treatment schedule and controls as detailed above.
Each titration experiment was performed in triplicate according to the treatment regimen described above, using DMSO and PZQ as appropriate controls. Morphologies and motility were assessed by light microscopy, and dose-response curves were calculated using the primary readout of parasite attachment to tissue culture substrate in GraphPad Prism.
as §5, §6, §7
(Roche, cOmplete Mini, EDTA-free Tablets) and 10 mM DTT. The lysates were then sonicated on high for 5 min (30 sec on, 30 sec off) using a Bioruptor UCD-200. […]
Compounds were tested from 100 μM – 1 nM. Values were calculated using Prism.

[7] = H. sapiens p97 IC50 versus S. mansoni p97 IC50
[8] = recombinant Hsp97, Kinase-Glo, NA = no notable effect on the enzyme at tested concentrations, >100 = IC50 predicted above 100 μM or maximal inhibition not achieved
[9] = recombinant full-length enzyme, Kinase-Glo, 100 μM to 1 nM
[10] = recombinant full-length enzyme, Kinase-Glo

T1 sequence (P55072 whole entry): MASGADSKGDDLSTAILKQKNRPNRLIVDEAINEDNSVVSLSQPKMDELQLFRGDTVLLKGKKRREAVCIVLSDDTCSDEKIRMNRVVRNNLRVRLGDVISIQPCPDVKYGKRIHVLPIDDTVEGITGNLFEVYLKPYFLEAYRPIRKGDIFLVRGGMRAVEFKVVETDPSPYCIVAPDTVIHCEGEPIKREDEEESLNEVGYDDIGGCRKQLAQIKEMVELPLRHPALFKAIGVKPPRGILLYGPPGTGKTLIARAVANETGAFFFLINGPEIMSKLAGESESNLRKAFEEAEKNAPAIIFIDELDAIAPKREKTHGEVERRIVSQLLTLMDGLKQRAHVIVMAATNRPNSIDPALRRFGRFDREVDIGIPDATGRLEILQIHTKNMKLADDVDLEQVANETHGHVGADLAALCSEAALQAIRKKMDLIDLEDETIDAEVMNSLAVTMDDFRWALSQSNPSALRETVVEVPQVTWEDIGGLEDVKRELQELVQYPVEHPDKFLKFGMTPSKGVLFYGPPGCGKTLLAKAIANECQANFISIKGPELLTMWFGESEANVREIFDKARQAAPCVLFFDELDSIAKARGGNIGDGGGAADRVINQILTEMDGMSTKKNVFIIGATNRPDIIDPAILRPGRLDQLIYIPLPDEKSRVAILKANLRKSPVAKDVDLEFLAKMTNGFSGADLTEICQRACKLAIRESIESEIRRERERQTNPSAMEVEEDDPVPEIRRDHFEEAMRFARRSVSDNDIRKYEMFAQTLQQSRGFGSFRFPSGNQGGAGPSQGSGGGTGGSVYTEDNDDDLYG
S. mansoni p97 (Smp_018240), sequence (G4M0P7 entry or part of it): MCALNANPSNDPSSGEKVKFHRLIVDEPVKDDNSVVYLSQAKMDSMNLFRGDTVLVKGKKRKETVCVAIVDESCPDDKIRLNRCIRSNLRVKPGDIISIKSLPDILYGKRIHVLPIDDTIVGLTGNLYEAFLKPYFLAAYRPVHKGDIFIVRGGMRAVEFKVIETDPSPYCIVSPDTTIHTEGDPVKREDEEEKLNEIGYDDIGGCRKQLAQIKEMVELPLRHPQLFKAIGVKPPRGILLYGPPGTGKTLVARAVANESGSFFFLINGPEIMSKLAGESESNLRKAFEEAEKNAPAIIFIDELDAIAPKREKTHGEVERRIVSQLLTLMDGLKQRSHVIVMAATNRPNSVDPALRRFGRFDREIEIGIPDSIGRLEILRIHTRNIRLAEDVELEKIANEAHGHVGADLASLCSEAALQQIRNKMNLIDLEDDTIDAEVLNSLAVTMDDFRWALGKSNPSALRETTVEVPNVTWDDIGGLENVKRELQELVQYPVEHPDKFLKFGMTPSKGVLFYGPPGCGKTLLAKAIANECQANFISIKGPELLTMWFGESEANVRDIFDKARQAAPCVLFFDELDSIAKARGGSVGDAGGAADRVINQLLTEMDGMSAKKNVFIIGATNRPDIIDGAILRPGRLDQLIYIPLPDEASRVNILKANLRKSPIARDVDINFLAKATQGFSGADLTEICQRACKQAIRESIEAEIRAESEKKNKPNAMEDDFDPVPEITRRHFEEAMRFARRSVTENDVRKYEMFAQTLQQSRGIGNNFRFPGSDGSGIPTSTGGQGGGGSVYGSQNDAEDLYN

Compound | Screen Inhibition (%) [1] [%] | phenotype of adult worms after treatment [2] | IC50 [3] [nM] | Fold Selectivity (parasite enzyme over human enzyme) [3, 7] [fold] | IC50 [4, 8] [nM] | other results
O=C(C=Cc1ccccc1)Nc1ccc2oc(-c3ccccc3)nc2c1 [Compound 135] | 1.1 |  |  |  |  | inhibition of S. mansoni p97 function in the screen [1]: inactive
O=C(C#Cc1ccccc1)Nc1ccc2oc(-c3ccncc3)nc2c1 [Compound 242] | 47 | led to death in adult parasites; also recorded: ultimately leading to their death | 1400 ± 110 | 8.6 | 12000 ± 310 | 
O=C(C#Cc1ccccc1)Nc1ccc2oc(-c3ccccn3)nc2c1 [Compound 243] | 46 | led to death in adult parasites; also recorded: ultimately leading to their death | 2100 ± 750 |  | 20000 ± 540 | Fold Selectivity (parasite enzyme over human enzyme) [3]: 9.5 fold
O=C(C#Cc1ccccc1)Nc1ccc2oc(-c3cccnc3)nc2c1 [Compound 244] | 16 | did not have any adverse effects on worm health and survival |  |  |  | 
O=C(C#Cc1ccccc1)Nc1ccc2oc(-c3ccccc3)nc2c1 [Compound 245] | 36 | did cause detachment, it did not lead to parasite death | 3800 ± 190 |  |  | 
O=C(/C=C\c1ccccc1)Nc1ccc2oc(-c3ccccc3)nc2c1 [Compound 324] | 1.1 |  |  |  |  | inhibition of S. mansoni p97 function in the screen [1]: inactive
O=C(CCc1ccccc1)Nc1ccc2oc(-c3ccccn3)nc2c1 [Compound 326] | 2.2 |  |  |  |  | inhibition of S. mansoni p97 function in the screen [1]: inactive
O=C(C#CC1CC1)Nc1ccc2oc(-c3ccccn3)nc2c1 [Compound 732] |  | still active on worms |  |  |  | 
COc1ccc(C#CC(=O)Nc2ccc3oc(-c4ccccn4)nc3c2)cc1 [Compound 734] |  | decreased activity on the worms | 48000 ± 2600 | 1.7 | 83000 ± 6500 | 
O=C(C#Cc1cccc(Cl)c1)Nc1ccc2oc(-c3ccccn3)nc2c1 [Compound 735] |  | still active on worms | 11000 ± 470 | 0.70 | 7300 ± 660 | 
O=C(C#Cc1ccc(Cl)cc1)Nc1ccc2oc(-c3ccccn3)nc2c1 [Compound 736] |  | decreased activity on the worms | 5900 ± 1300 | 1.1 | 6700 ± 55 | 
O=C(C#Cc1ccccn1)Nc1ccc2oc(-c3ccccn3)nc2c1 [Compound 737] |  | decreased activity on the worms | 3000 ± 410 | 4.3 | 13000 ± 2200 | 
O=C(C#Cc1cccnc1)Nc1ccc2oc(-c3ccccn3)nc2c1 [Compound 738] |  | death of the parasites | 420 ± 57 | 1.9 | 780 ± 140 | 
O=C(C#Cc1ccncc1)Nc1ccc2oc(-c3ccccn3)nc2c1 [Compound 739] |  | death of the parasites |  | 2.1 | 320 ± 26 | accumulation of K48 polyubiquitinated proteins by western blot [5]: on-target activity by western blot; IC50 [3, 9]: 150 nM
Cc1cccnc1-c1nc2cc(NC(=O)C#Cc3ccncc3)ccc2o1 [Compound 804] |  |  | 190 ± 63 | 0.70 | 140 ± 62 | 
Cc1ccnc(-c2nc3cc(NC(=O)C#Cc4ccncc4)ccc3o2)c1 [Compound 805] |  |  | 170 ± 92 | 0.80 | 140 ± 78 | 
Cc1ccc(-c2nc3cc(NC(=O)C#Cc4ccncc4)ccc3o2)nc1 [Compound 806] |  |  | 470 ± 170 | 1.1 | 510 ± 160 | 
Cc1cccc(-c2nc3cc(NC(=O)C#Cc4ccncc4)ccc3o2)n1 [Compound 807] |  |  | 670 ± 170 | 0.70 | 490 ± 57 | 
c1ccc(CNc2nc(NCc3ccccc3)c3ccccc3n2)cc1 [DbeQ, reference compound] |  | activity on the worms |  |  |  | accumulation of K48 polyubiquitinated proteins by western blot [5]: did not observe the same accumulation; IC50 [3, 9]: 12000 nM; IC50 [4, 10]: 910 ± 390 nM
CC1(C)C(N(O)C(=O)Nc2ccc(Cl)cc2)N(c2ccc(Cl)cc2)C(=O)N1CC(=O)N/N=C/C=C/c1ccc([N+](=O)[O-])o1 (stereo not shown) [Eeyarestatin I, reference compound] |  | effective |  |  |  | accumulation of K48 polyubiquitinated proteins by western blot [5]: did not see significant increases in K48 abundance
COc1cccc2c(NCc3ccccc3)nc(-n3c(N)nc4ccccc43)nc12 [ML240, reference compound] |  | killed parasites quickly |  |  |  | accumulation of K48 polyubiquitinated proteins by western blot [5]: did not observe the same accumulation; Fold Selectivity (parasite enzyme over human enzyme) [3]: ~ fivefold; IC50 [3, 9]: 66 ± 9.7 nM; IC50 [4, 10]: 330 ± 61 nM
CC(C)N1CCN(CCNC2CCN(c3cccc(-c4cc5cc(F)ccc5[nH]4)c3)CC2)CC1 [UPCDC-30245, reference compound] |  | effective |  |  |  | accumulation of K48 polyubiquitinated proteins by western blot [5]: did not see significant increases in K48 abundance; selectivity between schistosome and human p97 [3]: selective in favor of the human enzyme; IC50 [3, 9]: 4100 nM; IC50 [4, 10]: 970 ± 67 nM
AG-270 |  |  |  |  |  | EC50 [6]: 180 nM
